Reference: PubChem BioAssay AID256 (DTP/NCI, 2004)
Where “and” joins values, the source holds several entries; their conditions need not be identical. Equal entries are not always repeated. Inconclusive results and toxic doses are left out.

Tested on: CD2F1 mice, L1210 leukemia ip, survival T/C
Experiment: NCI In Vivo Anticancer Drug Screen. Data for tumor model L1210 Leukemia (intraperitoneal) in CD2F1 (CDF1) mice
Conditions: higher = longer survival
How it was run: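 Transplantable tumor in mice; compound-treated vs vehicle-treated groups. Read-out = treated/control ratio of the measured endpoint.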

[1] = endpoint: mean survival time, dose: 100.0 mg/kg/injection, schedule: Q04DX003 (ip), vehicle: saline with Tween-80
[2] = endpoint: mean survival time, dose: 200.0 mg/kg/injection, schedule: Q04DX003 (ip), vehicle: saline with Tween-80
[3] = endpoint: mean survival time, dose: 400.0 mg/kg/injection, schedule: Q04DX003 (ip), vehicle: saline with Tween-80
[4] = endpoint: mean survival time, dose: 100.0 mg/kg/injection, schedule: Q01DX009 (ip), vehicle: Klucel (hydroxypropylcellulose) (HPC)
[5] = endpoint: mean survival time, dose: 200.0 mg/kg/injection, schedule: Q01DX009 (ip), vehicle: Klucel (hydroxypropylcellulose) (HPC)
[6] = endpoint: mean survival time, dose: 100.0 mg/kg/injection, schedule: Q01DX009 (ip), vehicle: saline with Tween-80
[7] = endpoint: mean survival time, dose: 200.0 mg/kg/injection, schedule: Q01DX009 (ip), vehicle: saline with Tween-80
[8] = endpoint: mean survival time, dose: 400.0 mg/kg/injection, schedule: Q01DX009 (ip), vehicle: saline with Tween-80

For Cc1cccc(-n2c(N)cc(=O)[nH]c2=S)n1, which T/C [1] is on record?
Its T/C is 96 % of control.

How did the T/C (endpoint: mean survival time, dose: 25.0 mg/kg/injection, schedule: Q04DX002 (ip), vehicle: saline with Tween-80) turn out when CNc1c(C)cc(C)c(NC)c1C was run?
Its T/C is 104 % of control.

And the T/C (endpoint: mean survival time, dose: 50.0 mg/kg/injection, schedule: Q04DX002 (ip), vehicle: saline with Tween-80)?
Its T/C is 96 % of control.

And the T/C (endpoint: mean survival time, dose: 100.0 mg/kg/injection, schedule: Q04DX002 (ip), vehicle: saline with Tween-80)?
Its T/C is 116 % of control.

What does the source list for Nc1cc(C(=O)Nc2ccc(C3=NCCN3)cc2)cc(C(=O)Nc2ccc(C3=NCCN3)cc2)c1?
T/C (endpoint: mean survival time, dose: 31.3 mg/kg/injection, schedule: Q01DX010 (oral), vehicle: saline): 115 % of control; T/C (endpoint: mean survival time, dose: 250.0 mg/kg/injection, schedule: Q01DX010 (oral), vehicle: saline): 159 % of control

How did the T/C [1] turn out when Cc1oc([N+](=O)[O-])cc1C(=O)O was run?
Its T/C is 102 % of control.

And the T/C [2]?
The T/C was 102 % of control.

And the T/C [3]?
The T/C was 115 % of control.

For COc1ccc(/C=C2/N=C(C)OC2=O)cc1OC(C)=O, which T/C (endpoint: mean survival time, dose: 100.0 mg/kg/injection, schedule: Q01DX001 (ip), vehicle: saline) is on record?
Its T/C is 92 % of control.

What about the T/C (endpoint: mean survival time, dose: 200.0 mg/kg/injection, schedule: Q01DX001 (ip), vehicle: saline) of the same compound?
Its T/C is 93 % of control.

What about the T/C (endpoint: mean survival time, dose: 400.0 mg/kg/injection, schedule: Q01DX001 (ip), vehicle: saline) of the same compound?
Its T/C is 96 % of control.

Which results are given for COC(=O)c1ccc([N+](=O)[O-])cc1C(=O)OC?
T/C [1]: 100 % of control; T/C [2]: 108 % of control; T/C [3]: 102 % of control

How did the T/C [4] turn out when Cc1ccc(S(=O)(=O)N2CCC(=O)c3ccc(Cl)cc32)cc1 was run?
The T/C was 101 % of control.

What about the T/C [5] of the same compound?
Its T/C is 93 % of control.

And the T/C (endpoint: mean survival time, dose: 400.0 mg/kg/injection, schedule: Q01DX009 (ip), vehicle: Klucel (hydroxypropylcellulose) (HPC))?
The T/C was 96 % of control.

For N#CC(C#N)=NNc1ccc2cn[nH]c2c1, which T/C (endpoint: median survival time, dose: 12.5 mg/kg/injection, schedule: Q01DX009 (ip), vehicle: Klucel (hydroxypropylcellulose) (HPC)) is on record?
Its T/C is 98 % of control.

And the T/C (endpoint: median survival time, dose: 25.0 mg/kg/injection, schedule: Q01DX009 (ip), vehicle: Klucel (hydroxypropylcellulose) (HPC))?
Its T/C is 101 % of control.

And the T/C (endpoint: median survival time, dose: 50.0 mg/kg/injection, schedule: Q01DX009 (ip), vehicle: Klucel (hydroxypropylcellulose) (HPC))?
The T/C was 111 % of control.

What about the T/C (endpoint: median survival time, dose: 100.0 mg/kg/injection, schedule: Q01DX009 (ip), vehicle: Klucel (hydroxypropylcellulose) (HPC)) of the same compound?
The T/C was 115 % of control.

CC1c2ccccc2C=CN1C (stereo not drawn) was tested. Which T/C (endpoint: mean survival time, dose: 100.0 mg/kg/injection, schedule: Q04DX003 (ip), vehicle: saline sonified) did it give?
The T/C was 95 % of control.

And the T/C (endpoint: mean survival time, dose: 200.0 mg/kg/injection, schedule: Q04DX003 (ip), vehicle: saline sonified)?
The T/C was 106 % of control.

And the T/C (endpoint: mean survival time, dose: 400.0 mg/kg/injection, schedule: Q04DX003 (ip), vehicle: saline sonified)?
The T/C was 105 % of control.

Which results are given for O=CC=O?
T/C (endpoint: mean survival time, dose: 12.5 mg/kg/injection, schedule: Q01DX009 (ip), vehicle: saline with Tween-80): 100 % of control and 106 % of control; T/C (endpoint: mean survival time, dose: 25.0 mg/kg/injection, schedule: Q01DX009 (ip), vehicle: saline with Tween-80): 103 % of control and 107 % of control; T/C (endpoint: mean survival time, dose: 50.0 mg/kg/injection, schedule: Q01DX009 (ip), vehicle: saline with Tween-80): 97 % of control and 106 % of control; T/C [6]: 115 % of control and 107 % of control; T/C [7]: 106 % of control and 111 % of control; T/C [8]: 120 % of control and 108 % of control

For Nc1nc2c(c(=O)[nH]1)CN(c1ccc(Cl)cc1)C2, which T/C (endpoint: mean survival time, dose: 75.0 mg/kg/injection, schedule: Q01DX001 (ip), vehicle: saline) is on record?
The T/C was 98 % of control.

And the T/C (endpoint: mean survival time, dose: 150.0 mg/kg/injection, schedule: Q01DX001 (ip), vehicle: saline)?
The T/C was 104 % of control.

And the T/C (endpoint: mean survival time, dose: 300.0 mg/kg/injection, schedule: Q01DX001 (ip), vehicle: saline)?
The T/C was 93 % of control.

For CC1(C)CC[N+]1(C)C, which T/C (endpoint: mean survival time, dose: 12.5 mg/kg/injection, schedule: Q04DX003 (ip), vehicle: saline) is on record?
The T/C was 96 % of control.

What about the T/C (endpoint: mean survival time, dose: 25.0 mg/kg/injection, schedule: Q04DX003 (ip), vehicle: saline) of the same compound?
Its T/C is 102 % of control.

What about the T/C (endpoint: mean survival time, dose: 50.0 mg/kg/injection, schedule: Q04DX003 (ip), vehicle: saline) of the same compound?
Its T/C is 97 % of control.

With CC(=O)C1CCC2C3CC=C4CC(OC(=O)CCC(C)C)CCC4(C)C3CCC12C (stereo not drawn) as the compound, how does the T/C [1] read?
Its T/C is 95 % of control.

And the T/C [2]?
Its T/C is 95 % of control.

And the T/C [3]?
The T/C was 92 % of control.

For CCCCCCC[CH2][Sn]1([CH2]CCCCCCC)[O]C2C(CO)OC(n3ccc4c(N)ncnc43)C2[O]1 (stereo not drawn), which T/C (endpoint: mean survival time, dose: 0.78 mg/kg/injection, schedule: Q01DX005 (ip), vehicle: other) is on record?
The T/C was 110 % of control.

What about the T/C (endpoint: mean survival time, dose: 1.56 mg/kg/injection, schedule: Q01DX005 (ip), vehicle: other) of the same compound?
The T/C was 107 % of control.

And the T/C (endpoint: mean survival time, dose: 3.13 mg/kg/injection, schedule: Q01DX005 (ip), vehicle: other)?
The T/C was 115 % of control.

What about the T/C (endpoint: mean survival time, dose: 6.25 mg/kg/injection, schedule: Q01DX005 (ip), vehicle: other) of the same compound?
The T/C was 102 % of control.

Cc1cccc(/C(=C\c2ccc([N+](=O)[O-])cc2)C(=O)Nc2ccc(S(=O)(=O)F)c(C)c2)c1 was tested. Which T/C (endpoint: mean survival time, dose: 50.0 mg/kg/injection, schedule: Q01DX009 (ip), vehicle: Klucel (hydroxypropylcellulose) (HPC)) did it give?
Its T/C is 91 % of control.

What about the T/C [4] of the same compound?
Its T/C is 94 % of control.

And the T/C [5]?
The T/C was 112 % of control.

How did the T/C [6] turn out when COc1cc(/C=C/c2ccc3ccccc3n2)cc(OC)c1OC was run?
Its T/C is 94 % of control.

What about the T/C [1] of the same compound?
Its T/C is 104 % of control.

And the T/C [7]?
Its T/C is 91 % of control.

And the T/C [2]?
The T/C was 96 % of control.

And the T/C [8]?
The T/C was 89 % of control.

What about the T/C [3] of the same compound?
Its T/C is 98 % of control.
